Reference: patent publication US20030134824A1, “Beta-cyclodextrin dimers and phthalocyanines and uses thereof” (priority 2001, published 2003)

Columns and labels:
[1] = Binding of BNS to β-cyclodextrin dimers by fluorescence titration; conditions: water, ca. 25° C.
Procedure: Binding constants for a few of the possible pairs were determined by a fluorescence competition method previously used for cyclodextrin dimers, competing the substrate of interest with 2-(p-tert-butylanilino)naphthalene-6-sulfonic acid 22, (termed BNS, Breslow et al. 1989). [drawing 26]
BNS is fluorescent when bound into a hydrophobic cavity such as that of a cyclodextrin, but only weakly fluorescent in water solution. Only the sulfonated phthalocyanines were soluble enough for this method.
The binding constant of BNS 22 to each dimer was determined as previously (Breslow et al. 1989, Ruebner et al. 1999) by titrating BNS into a dimer solution in a fluorescence cell, then exciting this solution at 330 nm and measuring the fluorescent emission at 438 nm. The binding constant of phthalocyanine to dimer was measured by titration of BNS into a 1:1 mixture of dimer and phthalocyanine. […] The binding constant of BNS to each dimer is given by K=intercept/slope, and the binding constant of the phthalocyanine can be calculated as KI=(K/K′−1)/[I], where K′ is the apparent binding constant of BNS to the dimer in presence of phthalocyanine, and [I] is the concentration of phthalocyanine (Ruebner et al. 1996). […]
The binding constant for BNS to cyclodextrin dimer 21 was determined by the fluorescence emission method. […] The area under the peak between 400 and 500 nm was measured for each addition. […]

[2] = Photochemical cleavage of the dimers by bound phthalocyanines, monitored by 1H NMR; format: physicochemical; conditions: dimer 2.5 mM, photosensitizer 0.14 mM, 5% DMSO-d6 in D2O, O2, light >540 nm, 25° C.
Procedure: All of the photocleavage reactions were carried out using the same apparatus, as described previously (U.S. Ser. No. 09/352,529, filed Jul. 13, 1999, now allowed; Ruebner et al. 1999). A halogen lamp (50 W) was set up with a 540 nm cut-off filter and a focusing lens. The NMR tube in which the reactions were run was placed in the most strongly focused area, and oxygen was bubbled continuously through the solution while the photocleavage reactions were run. To monitor the reactions, ^1H NMR's were taken at regular intervals, whereby the disappearance of the alkene peaks and the appearance of the single formyl peak could be observed.
The dimers were at a concentration of 2.5 mM while the photosensitizers were at 0.14 mM in 5% DMSO-d6 in D2O. Here dimer 21 was cleaved using phthalocyanine 11. It can clearly be seen that the amount of alkene (doublet at ˜6.2 ppm) decreases and the formyl peak (singlet at ˜8.4 ppm) appears as the reaction progresses, and that no other peaks are seen in this area. […]
To a solution of β-cyclodextrin dimer 17 (5.9 mg, 2.35×10^−6 mol) and potassium carbonate (2 mg) in D2O (1.00 mL) was added a 3 mM solution of phthalocyanine 6 (0.17 mg, 1.50×10^−7 mol) in DMSO-d6 (50 μL). […] The reaction was monitored by ^1H NMR, by observance of the disappearance of the alkene peaks and the appearance of the formyl peak. […]

[3] = Microcalorimetric titration with p-tert-butylbenzoic acid; format: binding
Procedure: β-cyclodextrin (CD) monomer 23 (6.4 mg, 0.005 mmol) was dissolved in 0.20 M pH 9.0 Na2CO3/NaHCO3 buffer (5.00 mL) to make a 1.0 mM solution. p-tert-Butylbenzoic acid (11.0 mg, 0.062 mmol) was dissolved in 6.16 mL of the same buffer to make a 10.0 mM solution. Both solutions were degassed under reduced pressure with a sonicator for 5 minutes immediately prior to the binding study. The β-CD monomer 23 solution (2.50 mL) was put into the sample cell compartment of an Omega microcalorimeter, whereas the p-tert-butyl-benzoic acid was loaded in a 250 μL syringe and then assembled onto the calorimeter. The system was equilibrated until RMS error was less than 5×10^−3 with the syringe spinning at 400 rpm. The p-tert-butylbenzoic acid solution was then injected into the cell in 25 injections (10 μL, 7 seconds per injection). […] Injection data were automatically collected by the computer, and the data was analyzed by ORIGIN software with the single-binding-site model. […]
β-Cyclodextrin (4.0 mg, 0.0035 mmol) was dissolved in 0.20 M pH 9.0 Na2CO3/NaHCO3 buffer (3.53 mL) to make a 1.0 mM solution. p-tert-butyl-benzoic acid (10.0 mg, 0.056 mmol) was dissolved in 5.60 mL of the same buffer to make a 10.0 mM solution. […] Injection data were automatically collected by the computer, and the data was analyzed by ORIGIN software with the single-binding-site model. […]

CNC(=O)CCCS/C=C\SCCCC(=O)NC [Dimer 18]
binding constant of BNS to the dimer [1]: 418000 M⁻¹
time for 50% cleavage of the dimer by phthalocyanine 6 [2]: 55 min
time for 50% cleavage of the dimer by phthalocyanine 14 [2]: 6 min

OC[C@H]1O[C@@H]2O[C@H]3[C@H](O)[C@@H](O)[C@@H](O[C@H]4[C@H](O)[C@@H](O)[C@@H](O[C@H]5[C@H](O)[C@@H](O)[C@@H](O[C@H]6[C@H](O)[C@@H](O)[C@@H](O[C@H]7[C@H](O)[C@@H](O)[C@@H](O[C@H]8[C@H](O)[C@@H](O)[C@@H](O[C@H]1[C@H](O)[C@H]2O)O[C@@H]8CO)O[C@@H]7CO)O[C@@H]6CO)O[C@@H]5CO)O[C@@H]4CO)O[C@@H]3CO [β-cyclodextrin]
binding constant with 4-tert-butylbenzoic acid [3]: 1.7×10^4 M^−
